This note sets out measurements from patent US20200404919A1, “USE OF HETEROARYL-TRIAZOLE AND HETEROARYL-TETRAZOLE COMPOUNDS AS PESTICIDES IN PLANT PROTECTION” (Bayer Aktiengesellschaft, priority 2018, published 2020).

What all share (format): in vivo
One assay relates to Diabrotica balteata. Description: Diabrotica balteata - spray test. Particulars: 168 h, 160 μg/well, germinated wheat seeds, larvae, after 7 days, read-out: efficacy in %. As for the experimental part:
Diabrotica balteata—Spray Test
(§1) To produce a suitable preparation of active compound, 1 part by weight of active compound is mixed with the stated amount of solvent, and the concentrate is diluted with water, containing an emulsifier concentration of 1000 ppm, to the desired concentration. Further test concentrations are prepared by dilution with emulsifier containing water.
Soaked wheat seeds (Triticum aestivum) are placed in a multiple well plate filled with agar and some water and are incubated for 1 day to germinate (5 seeds per well). The germinated wheat seeds are sprayed with a test solution containing the desired concentration of the active ingredient. Afterwards each unit is infected with 10-20 larvae of the banded cucumber beetle (Diabrotica balteata).
After 7 days efficacy in % is determined. 100% means all the seedlings have grown up like in the untreated, uninfected control; 0% means none of the seedlings have grown.

The next assay has as its system Nezara viridula. Description: Nezara viridula - spray test 1. The settings on record: in Hordeum vulgare, 96 h, read-out: mortality in %. As for the experimental part:
Nezara viridula—Spray Test 1
as §1
Barley plants (Hordeum vulgare) infested with larvae of the southern green stink bug (Nezara viridula) are sprayed with a test solution containing the desired concentration of the active ingredient.
After 4 days mortality in % is determined. 100% means all the stink bugs have been killed; 0% means none of the stink bugs have been killed.

For another assay, the system named is Spodoptera frugiperda. Description: Spodoptera frugiperda - spray test. Particulars: in Zea mays, 168 h, read-out: mortality in %. As for the experimental part:
Spodoptera frugiperda—Spray Test
(§2) To produce a suitable preparation of active compound, 1 part by weight of active compound is mixed with the stated amount of solvents and is diluted with water, containing an emulsifier concentration of 1000 ppm, to the desired concentration. Further test concentrations are prepared by dilution with emulsifier containing water.
Maize (Zea mays) leaf sections are sprayed with a preparation of the active ingredient of the desired concentration. Once dry, the leaf sections are infested with fall armyworm larvae (Spodoptera frugiperda).
After 7 days mortality in % is determined. 100% means all caterpillars have been killed and 0% means none of the caterpillars have been killed.

The test system of another assay is Nilaparvata lugens. As to the kind of experiment: Nilaparvata lugens - spray test 1. Particulars: in Oryza sativa, 96 h, read-out: mortality in %, 500 g/ha, rice plants, after 4 days. As for the experimental part:
Nilaparvata lugens—Spray Test 1
as §2
Rice plants (Oryza sativa) are sprayed with a preparation of the active ingredient of the desired concentration and the plants are infested with the brown planthopper (Nilaparvata lugens).
After 4 days mortality in % is determined. 100% means all planthoppers have been killed and 0% means none of the planthoppers have been killed.

The next assay deals with Myzus persicae. Description: Myzus persicae - oral test. Particulars: 120 h, read-out: mortality in %. The method, then: To produce a suitable preparation of active compound, 1 part by weight of active compound is mixed with the stated amount of solvent, and the concentrate is diluted with water to the desired concentration. 50 μl compound solution is filled in microtiter plates and 150 μl IPL41 insect medium (33%+15% sugar) is added to obtain a total volume of 200 μl per well. Afterwards the plates are sealed with parafilm through which a mixed population of the green peach aphid (Myzus persicae) can suck on the compound preparation.
(§3) After 5 days mortality in % is determined. 100% means all aphids have been killed and 0% means none of the aphids have been killed.

The subject of another assay is Phaedon cochleariae. As to the kind of experiment: Phaedon cochleariae - spray test. The settings on record: in Brassica rapa, foliar, 168 h, read-out: mortality in %. The method, then:
Phaedon cochleariae—Spray Test
as §2
Chinese cabbage (Brassica pekinensis) leaf disks are sprayed with a preparation of the active ingredient of the desired concentration. Once dry, the leaf disks are infested with mustard beetle larvae (Phaedon cochleariae).
After 7 days mortality in % is determined. 100% means all beetle larvae have been killed and 0% means none of the beetle larvae have been killed.

Another assay deals with Aphis gossypii. As to the kind of experiment: Aphis gossypii - oral test. The settings on record: 120 h, read-out: mortality in %. As for the experimental part: Solvent: 100 parts by weight acetone
To produce a suitable preparation of active compound, 1 part by weight of active compound is mixed with the stated amount of solvent, and the concentrate is diluted with water to the desired concentration.
50 μl compound solution is filled in microtiter plates and 150 μl IPL41 insect medium (33%+15% sugar) is added to obtain a total volume of 200 μl per well. Afterwards the plates are sealed with parafilm through which a mixed population of the cotton aphid (Aphis gossypii) can suck on the compound preparation.
as §3

Regarding `C[C@H](NC(=O)c1cc(F)c(Cl)c(F)c1)c1ncnn1-c1ncccn1` [Compound I-133], the pest or weed control at 160 µg/disc, 160 µg/well in the assay on Diabrotica balteata was 100%.

For `CC(c1ncnn1-c1cccc(Cl)n1)N(CC1CC1)C(=O)c1cc(Cl)cc(C(F)(F)F)c1` (centres unmarked) [Compound I-87], the pest or weed control at 160 µg/disc, 160 µg/well in the assay with Diabrotica balteata amounted to 100%.

Take `C[C@H](NC(=O)c1cc(Cl)cc(C(F)(F)F)c1)c1nc(C(F)(F)F)nn1-c1ccc(Cl)cn1` [Compound I-131, 3-chloro-N-{(1S)-1-[1-(5-chloropyridin-2-yl)-3-(trifluoromethyl)-1H-1,2,4-triazol-5-yl]ethyl}-5-(trifluoromethyl)benzamide]: the mortality at 500 g/ha in the assay with Nezara viridula, in the assay on Spodoptera frugiperda and with Nilaparvata lugens was 100% in each case. The pest or weed control at 160 µg/disc, 160 µg/well in the assay on Diabrotica balteata is 80%.

For the compound `C[C@H](NC(=O)c1cc(C(F)(F)F)cc(C(F)(F)F)c1)c1nc(C(F)(F)F)nn1-c1ccc(Cl)cn1` [Compound I-136, N-[(1S)-1-[2-(5-chloro-2-pyridyl)-5-(trifluoromethyl)-1,2,4-triazol-3-yl]ethyl]-3,5-bis(trifluoromethyl)benzamide], the pest or weed control at 160 µg/disc, 160 µg/well in the assay on Diabrotica balteata worked out at 100%. Further, the mortality at 500 g/ha with Spodoptera frugiperda was 100%.

On to `CC(c1ncnn1-c1ncccn1)N(CC1COC1)C(=O)c1cc(Cl)cc(C(F)(F)F)c1` (centres unmarked) [Compound I-118], for which, in the assay on Myzus persicae, the mortality at 20 ppm amounted to 100%. For the same compound, in the assay on Diabrotica balteata, the pest or weed control at 160 µg/disc, 160 µg/well amounted to 100%. For the same compound, the figures for the mortality at 500 g/ha with Spodoptera frugiperda and in the assay with Phaedon cochleariae were 100% and 83%, respectively.

Take `CC(c1ncnn1-c1ccc(Cl)nc1)N(CC1CC1)C(=O)c1cc(Cl)cc(C(F)(F)F)c1` (centres unmarked) [Compound I-105]: the pest or weed control at 160 µg/disc, 160 µg/well in the assay with Diabrotica balteata was found to be 100%. Moreover, in the assay with Phaedon cochleariae, the mortality at 500 g/ha came out at 100%.

In the case of `CC(c1ncnn1-c1ccc(Cl)cn1)N(CC1CC1)C(=O)c1cc(Cl)cc(C(F)(F)F)c1` (centres unmarked) [Compound I-84, 3-chloro-N-[1-[2-(5-chloro-2-pyridyl)-1,2,4-triazol-3-yl]ethyl]-N-(cyclopropylmethyl)-5-(trifluoromethyl)benzamide], the mortality at 500 g/ha in the assay with Nezara viridula, in the assay with Spodoptera frugiperda and in the assay on Phaedon cochleariae was 100% in each case. In the assay on Myzus persicae, the mortality at 20 ppm stood at 100%. In addition, the pest or weed control at 160 µg/disc, 160 µg/well with Diabrotica balteata is 100%.

Turning to `CC(c1ncnn1-c1ncccn1)N(CC1CC1)C(=O)c1ccc(Cl)c(Cl)c1` (centres unmarked) [Compound I-104], the mortality at 100 ppm in the assay with Aphis gossypii is 90%. The mortality at 500 g/ha in the assay on Nezara viridula and in the assay with Phaedon cochleariae was 100% throughout. Further, the mortality at 20 ppm in the assay on Myzus persicae stood at 100%. The pest or weed control at 160 µg/disc, 160 µg/well with Diabrotica balteata worked out at 100%.

For the compound `CC(c1ncnn1-c1ccnc(Cl)c1)N(CC1CC1)C(=O)c1cc(Cl)cc(C(F)(F)F)c1` (centres unmarked) [Compound I-102], the pest or weed control at 160 µg/disc, 160 µg/well in the assay on Diabrotica balteata amounted to 100%.

As for `C[C@H](NC(=O)c1cc(Cl)cc(C(F)(F)F)c1)c1ncnn1-c1ccc(Br)cn1` [Compound I-129, N-[(1S)-1-[2-(5-bromo-2-pyridyl)-1,2,4-triazol-3-yl]ethyl]-3-chloro-5-(trifluoromethyl)benzamide], the mortality at 500 g/ha with Nezara viridula and in the assay on Spodoptera frugiperda was 100% in each case. Also, the pest or weed control at 160 µg/disc, 160 µg/well in the assay with Diabrotica balteata worked out at 100%.

As for `C[C@H](NC(=O)c1cc(Cl)cc(C(F)(F)F)c1)c1ncnn1-c1ccc(I)cn1` [Compound I-132, 3-chloro-N-[(1S)-1-[2-(5-iodo-2-pyridyl)-1,2,4-triazol-3-yl]ethyl]-5-(trifluoromethyl)benzamide], the mortality at 500 g/ha in the assay on Nezara viridula and in the assay on Spodoptera frugiperda was 100% each time. Further, the pest or weed control at 160 µg/disc, 160 µg/well in the assay on Diabrotica balteata turned out to be 100%.

`C[C@H](NC(=O)c1cc(F)cc(C#N)c1)c1ncnn1-c1ncccn1` [Compound I-128]: the mortality at 500 g/ha with Nezara viridula was 100%. The pest or weed control at 160 µg/disc, 160 µg/well in the assay on Diabrotica balteata was 100%.

On to `C[C@H](NC(=O)c1cc(Cl)cc(Br)c1)c1ncnn1-c1ccc(Cl)cn1` [Compound I-137, 3-bromo-5-chloro-N-[(1S)-1-[2-(5-chloro-2-pyridyl)-1,2,4-triazol-3-yl]ethyl]benzamide], for which the mortality at 500 g/ha in the assay with Nezara viridula and with Spodoptera frugiperda was 100% each time. Besides, the pest or weed control at 160 µg/disc, 160 µg/well in the assay with Diabrotica balteata is 100%.

In the case of `CC(NC(=O)c1cc(Cl)cc(Cl)c1)c1ncnn1-c1ncc(Br)cn1` (centres unmarked) [Compound I-130], the pest or weed control at 160 µg/disc, 160 µg/well with Diabrotica balteata turned out to be 100%. For the same compound, the mortality at 500 g/ha with Spodoptera frugiperda came to 100%.

With `CC(c1ncnn1-c1cccnn1)N(CC1CC1)C(=O)c1cc(Cl)cc(C(F)(F)F)c1` (centres unmarked) [Compound I-103], in the assay with Aphis gossypii, the mortality at 100 ppm worked out at 100%. Further, the mortality at 20 ppm in the assay with Myzus persicae was 90%. In addition, the pest or weed control at 160 µg/disc, 160 µg/well in the assay on Diabrotica balteata is 100%. Besides, the mortality at 500 g/ha in the assay on Phaedon cochleariae came out at 100%.

As to `CC(c1ncnn1-c1cccnc1)N(CC1CC1)C(=O)c1cc(Cl)cc(C(F)(F)F)c1` (centres unmarked) [Compound I-85], the mortality at 100 ppm in the assay on Aphis gossypii was 100%. Besides, the mortality at 20 ppm with Myzus persicae is 100%. Also, in the assay on Diabrotica balteata, the pest or weed control at 160 µg/disc, 160 µg/well was found to be 100%.

For `CC(c1ncnn1-c1ncccn1)N(CC1CC1)C(=O)c1cncc(SC(F)(F)F)c1` (centres unmarked) [Compound I-90], the mortality at 100 ppm in the assay on Aphis gossypii amounted to 100%. The mortality at 20 ppm with Myzus persicae turned out to be 100%. Besides, the mortality at 500 g/ha with Phaedon cochleariae was 100%.

`C[C@H](NC(=O)c1cncc(C(F)(F)F)c1)c1nc(C(F)(F)F)nn1-c1ccc(Cl)cn1` [Compound I-135]: the pest or weed control at 160 µg/disc, 160 µg/well with Diabrotica balteata worked out at 100%. Further, the mortality at 500 g/ha with Spodoptera frugiperda came to 100%.

`CC(c1ncnn1-c1ncccn1)N(CC1CCC1)C(=O)c1cc(Cl)cc(C(F)(F)F)c1` (centres unmarked) [Compound I-101]: the mortality at 100 ppm in the assay on Aphis gossypii is 100%. In addition, the mortality at 20 ppm in the assay with Myzus persicae was 100%. Further, the pest or weed control at 160 µg/disc, 160 µg/well in the assay on Diabrotica balteata was determined as 100%. The mortality at 500 g/ha in the assay with Spodoptera frugiperda was 100%.

As for `CC(c1ncnn1-c1ccncc1)N(CC1CC1)C(=O)c1cc(Cl)cc(C(F)(F)F)c1` (centres unmarked) [Compound I-94], in the assay on Aphis gossypii, the mortality at 100 ppm was 100%. Further, in the assay on Myzus persicae, the mortality at 20 ppm came out at 100%. Also, in the assay with Diabrotica balteata, the pest or weed control at 160 µg/disc, 160 µg/well was 100%.

For the compound `CC(c1ncnn1-c1ncc(Br)cn1)N(CC1CC1)C(=O)c1cc(Cl)cc(C(F)(F)F)c1` (centres unmarked) [Compound I-92, N-[1-[2-(5-bromopyrimidin-2-yl)-1,2,4-triazol-3-yl]ethyl]-3-chloro-N-(cyclopropylmethyl)-5-(trifluoromethyl)benzamide], the mortality at 100 ppm in the assay on Aphis gossypii turned out to be 100%. For the same compound, the mortality at 20 ppm in the assay with Myzus persicae worked out at 100%. Moreover, in the assay with Diabrotica balteata, the pest or weed control at 160 µg/disc, 160 µg/well came to 100%. In addition, the mortality at 500 g/ha in the assay on Spodoptera frugiperda and with Phaedon cochleariae was 100% in each case.

On to `CC(c1ncnn1-c1ncccn1)N(CC1CC1)C(=O)c1cc(C#N)cc(C(F)(F)F)c1` (centres unmarked) [Compound I-50, 3-cyano-N-(cyclopropylmethyl)-N-[1-(2-pyrimidin-2-yl-1,2,4-triazol-3-yl)ethyl]-5-(trifluoromethyl)benzamide], for which, in the assay with Aphis gossypii, the mortality at 100 ppm worked out at 100%. The mortality at 500 g/ha in the assay with Nezara viridula, with Spodoptera frugiperda and in the assay on Phaedon cochleariae was 100% throughout. The mortality at 20 ppm in the assay on Myzus persicae came to 100%. Moreover, the pest or weed control at 160 µg/disc, 160 µg/well in the assay with Diabrotica balteata was 100%.
